Data taken from patent US6939845B2, “Fragrance precursors” (Givaudan SA, priority 2000, dated 2005).

Experiment: Stability tests in aqueous buffer solutions
Format: physicochemical
Settings: for Stability at pH 2.5: aqueous buffer pH 2.5, 24 h at 37° C.; for Stability at pH 7: aqueous buffer pH 7, 24 h at 37° C.; for Stability at pH 9.5: aqueous buffer pH 9.5, 24 h at 37° C.

| Stability at pH 2.5 | Stability at pH 7 | Stability at pH 9.5 | Structure (SMILES) |
| --- | --- | --- | --- |
| stable | stable | stable | CCCCCCCC1CCC(OCC(=O)c2cc3c(cc2C)C(C)(C)C(C)CC3(C)C)O1 (stereo not drawn) [compound 2, 2-(5-Heptyl-tetrahydro-furan-2-yloxy)-1-(3,5,5,6,8,8-hexamethyl-5,6,7,8-tetrahydro-naphtalen-2-yl)-ethanone] |
| unstable | stable | stable | CCCCCCCC1CCC(OCC(=O)c2ccc3ccccc3c2)O1 (stereo not drawn) [compound 3, 2-(5-Heptyl-tetrahydro-furan-2-yloxy)-1-naphtalen-2-yl-ethanone] |
| unstable | stable | stable | CCCCCCCC1CCC(OCC(=O)c2ccc(OC)cc2)O1 (stereo not drawn) [compound 4, 2-(5-Heptyl-tetrahydro-furan-2-yloxy)-1-(4-methoxy-phenyl)-ethanone] |

Second part, the compound before the results:

| Structure (SMILES) | Stability at pH 2.5 | Stability at pH 7 | Stability at pH 9.5 |
| --- | --- | --- | --- |
| Cc1cc2c(cc1C(=O)COC1CCC3(CCC(C)CC3)O1)C(C)(C)CC(C)C2(C)C (stereo not drawn) [compound 1, 1-(3,5,5,6,8,8-Hexamethyl-5,6,7,8-tetrahydro-naphtalen-2-yl)-2-(8-methyl-1-oxa-spiro[4.5]dec-2-yloxy)-ethanone] | stable | stable | stable |
| C/C=C/CCC1CCCC(OCC(=O)c2cc3c(cc2C)C(C)(C)C(C)CC3(C)C)O1 (stereo not drawn) [compound 5, 1-(3,5,5,6,8,8-Hexamethyl-5,6,7,8-tetrahydro-naphthalen-2-yl)-2-(6-pent-3-enyl-tetrahydro-pyran-2-yloxy)-ethanone] | stable | stable | stable |
| C/C=C/CCC1CCCC(OCC(=O)c2ccc3ccccc3c2)O1 (stereo not drawn) [compound 6, 1-(Naphtalen-2-yl)-2-(6-pent-3-enyl-tetrahydro-pyran-2-yloxy)-ethanone] | unstable | stable | stable |
